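The concentration for 50% growth inhibition is given as GI50. TGI denotes the concentration required for complete inhibition of growth.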
Experiments:
Test in all cases: inhibition of tumour cell growth, NCI panel, 384-well format
RXF 393 renal = system: RXF 393 renal
KM12 colon = system: KM12 colon
RPMI-8226 leukemia = system: RPMI-8226 leukemia
PC-3 prostate = system: PC-3 prostate
OVCAR-3 ovarian = system: OVCAR-3 ovarian
HOP-62 NSCLC = system: HOP-62 NSCLC
SNB-19 CNS = system: SNB-19 CNS
SK-OV-3 ovarian = system: SK-OV-3 ovarian
NCI-H226 lung = system: NCI-H226 lung
K-562 leukemia = system: K-562 leukemia
MCF7 breast = system: MCF7 breast
SF-295 CNS = system: SF-295 CNS
SW-620 colon = system: SW-620 colon
CCRF-CEM leukemia = system: CCRF-CEM leukemia
IGROV1 ovarian = system: IGROV1 ovarian
SK-MEL-5 melanoma = system: SK-MEL-5 melanoma
UACC-257 melanoma = system: UACC-257 melanoma
SN12C renal = system: SN12C renal
SF-268 CNS = system: SF-268 CNS
COLO 205 colon = system: COLO 205 colon
786-0 renal = system: 786-0 renal
MDA-MB-435 melanoma = system: MDA-MB-435 melanoma
OVCAR-5 ovarian = system: OVCAR-5 ovarian
HS 578T breast = system: HS 578T breast
ACHN renal = system: ACHN renal
SNB-75 CNS = system: SNB-75 CNS
HT29 colon = system: HT29 colon
MDA-MB-468 breast = system: MDA-MB-468 breast
U251 glioblastoma = system: U251 glioblastoma
HL-60(TB) leukemia = system: HL-60(TB) leukemia
T-47D breast = system: T-47D breast
NCI-H23 lung = system: NCI-H23 lung
HCT-15 colon = system: HCT-15 colon
A549 NSCLC = system: A549 NSCLC
NCI-H522 lung = system: NCI-H522 lung
NCI/ADR-RES ovarian = system: NCI/ADR-RES ovarian
OVCAR-4 ovarian = system: OVCAR-4 ovarian
A498 renal = system: A498 renal
HCC-2998 colon = system: HCC-2998 colon
MALME-3M melanoma = system: MALME-3M melanoma
OVCAR-8 ovarian = system: OVCAR-8 ovarian
SF-539 CNS = system: SF-539 CNS
SK-MEL-28 melanoma = system: SK-MEL-28 melanoma
M14 melanoma = system: M14 melanoma
UACC-62 melanoma = system: UACC-62 melanoma
DU-145 prostate = system: DU-145 prostate
TK-10 renal = system: TK-10 renal
BT-549 breast = system: BT-549 breast
EKVX NSCLC = system: EKVX NSCLC
CAKI-1 renal = system: CAKI-1 renal
NCI-H322M lung = system: NCI-H322M lung
LOX IMVI melanoma = system: LOX IMVI melanoma
NCI-H460 NSCLC = system: NCI-H460 NSCLC
UO-31 renal = system: UO-31 renal

CCS(=O)(=O)c1cccc(-c2cc(C(=O)NC3CCN(C)CC3)c(C)c3[nH]c4ncc(C)cc4c23)c1
GI50 (RXF 393 renal): 112 nM | TGI (RXF 393 renal): 384 nM | GI50 (KM12 colon): 24.2 nM | TGI (KM12 colon): 1110 nM | GI50 (RPMI-8226 leukemia): 49.7 nM | TGI (RPMI-8226 leukemia): 226 nM | GI50 (PC-3 prostate): 219 nM | TGI (PC-3 prostate): 2710 nM | GI50 (OVCAR-3 ovarian): 103 nM | TGI (OVCAR-3 ovarian): 298 nM | GI50 (HOP-62 NSCLC): 161 nM | TGI (HOP-62 NSCLC): 1290 nM | GI50 (SNB-19 CNS): 192 nM | TGI (SNB-19 CNS): 1390 nM | GI50 (SK-OV-3 ovarian): 135 nM | TGI (SK-OV-3 ovarian): 869 nM | GI50 (NCI-H226 lung): 39.2 nM | TGI (NCI-H226 lung): 441 nM | GI50 (K-562 leukemia): 32.2 nM | TGI (K-562 leukemia): 761 nM | GI50 (MCF7 breast): 12.6 nM | TGI (MCF7 breast): 2130 nM | GI50 (SF-295 CNS): 399 nM | TGI (SF-295 CNS): 3610 nM | GI50 (SW-620 colon): 181 nM | TGI (SW-620 colon): 1250 nM | TGI (CCRF-CEM leukemia): 12.1 nM | GI50 (IGROV1 ovarian): 40.8 nM | TGI (IGROV1 ovarian): 230 nM | GI50 (SK-MEL-5 melanoma): 264 nM | TGI (SK-MEL-5 melanoma): 1680 nM | GI50 (UACC-257 melanoma): 139 nM | TGI (UACC-257 melanoma): 935 nM | GI50 (SN12C renal): 51.5 nM | TGI (SN12C renal): 267 nM | GI50 (SF-268 CNS): 17.8 nM | TGI (SF-268 CNS): 91.1 nM | GI50 (COLO 205 colon): 18.3 nM | TGI (COLO 205 colon): 98.1 nM | GI50 ([…]-0 renal): 1000 nM | TGI (786-0 renal): 2460 nM | GI50 (MDA-MB-435 melanoma): 366 nM | TGI (MDA-MB-435 melanoma): 1900 nM | GI50 (OVCAR-5 ovarian): 185 nM | TGI (OVCAR-5 ovarian): 827 nM | GI50 (HS 578T breast): 58.1 nM | TGI (HS 578T breast): 216 nM | GI50 (ACHN renal): 2370 nM | TGI (ACHN renal): 13200 nM | GI50 (SNB-75 CNS): 101 nM | TGI (SNB-75 CNS): 226 nM | GI50 (HT29 colon): 215 nM | TGI (HT29 colon): 10500 nM | GI50 (MDA-MB-468 breast): 17.9 nM | TGI (MDA-MB-468 breast): 88.6 nM | GI50 (U251 glioblastoma): 202 nM | TGI (U251 glioblastoma): 902 nM | GI50 (HL-60(TB) leukemia): 31.8 nM | TGI (HL-60(TB) leukemia): 126 nM | GI50 (T-47D breast): 59.2 nM | TGI (T-47D breast): 270 nM | GI50 (NCI-H23 lung): 66.9 nM | TGI (NCI-H23 lung): 343 nM | GI50 (HCT-15 colon): 3960 nM | TGI (HCT-15 colon): 19800 nM | GI50 (A549 NSCLC): 58 nM | TGI (A549 NSCLC): 1200 nM | GI50 (NCI-H522 lung): 19.4 nM | TGI (NCI-H522 lung): 126 nM | GI50 (NCI/ADR-RES ovarian): > 100000 nM | TGI (NCI/ADR-RES ovarian): > 100000 nM | GI50 (OVCAR-4 ovarian): 953 nM | TGI (OVCAR-4 ovarian): 5040 nM | GI50 (A498 renal): 1400 nM | TGI (A498 renal): 5500 nM | GI50 (HCC-2998 colon): 168 nM | TGI (HCC-2998 colon): 1240 nM | GI50 (MALME-3M melanoma): 240 nM | TGI (MALME-3M melanoma): 1460 nM | GI50 (OVCAR-8 ovarian): 309 nM | TGI (OVCAR-8 ovarian): 1490 nM | GI50 (SF-539 CNS): 59 nM | TGI (SF-539 CNS): 233 nM | GI50 (SK-MEL-28 melanoma): 279 nM | TGI (SK-MEL-28 melanoma): 1300 nM | GI50 (M14 melanoma): 437 nM | TGI (M14 melanoma): 2040 nM | GI50 (UACC-62 melanoma): 158 nM | TGI (UACC-62 melanoma): 1120 nM | GI50 (DU-145 prostate): 343 nM | TGI (DU-145 prostate): 4340 nM | GI50 (TK-10 renal): 1740 nM | TGI (TK-10 renal): 5520 nM | GI50 (BT-549 breast): 144 nM | TGI (BT-549 breast): 326 nM | GI50 (EKVX NSCLC): 270 nM | TGI (EKVX NSCLC): 1930 nM | GI50 (CAKI-1 renal): 328 nM | TGI (CAKI-1 renal): 5340 nM | GI50 (NCI-H322M lung): 541 nM | TGI (NCI-H322M lung): 2440 nM | GI50 (LOX IMVI melanoma): 84.9 nM | TGI (LOX IMVI melanoma): 229 nM | GI50 (NCI-H460 NSCLC): 36.2 nM | TGI (NCI-H460 NSCLC): 1080 nM | GI50 (UO-31 renal): 5480 nM | TGI (UO-31 renal): 19100 nM
